Test results published in US20250049930A1, “PROTAC MOLECULES TARGETING FOXP3 AND USES THEREOF” (CEDARS-SINAI MEDICAL CENTER, priority 2022, published 2025).
Residues, ends and D or L forms follow the SMILES beside them. *: point of attachment. X1 = O=C1CCC(N2C(=O)c3cccc(*)c3C2=O)C(=O)N1; PEG4 = NCCOCCOCCOCCOCCC(=O)O

Legend:
FoxP3 = molecular target: T1, FoxP3 (Homo sapiens, UniProt Q9BZS1); experiment: FoxP3 expression in CD4+ human PBMC, flow cytometry; format: cell-based; settings: 10 μM, 3 days, PMA 10 ng/ml and Ionomycin 2 μg/ml, difference to P60 not significant
T1 construct: endogenous in cells; host or cells: human PBMC (CD4+ gated)
T1 sequence (Q9BZS1 1-431): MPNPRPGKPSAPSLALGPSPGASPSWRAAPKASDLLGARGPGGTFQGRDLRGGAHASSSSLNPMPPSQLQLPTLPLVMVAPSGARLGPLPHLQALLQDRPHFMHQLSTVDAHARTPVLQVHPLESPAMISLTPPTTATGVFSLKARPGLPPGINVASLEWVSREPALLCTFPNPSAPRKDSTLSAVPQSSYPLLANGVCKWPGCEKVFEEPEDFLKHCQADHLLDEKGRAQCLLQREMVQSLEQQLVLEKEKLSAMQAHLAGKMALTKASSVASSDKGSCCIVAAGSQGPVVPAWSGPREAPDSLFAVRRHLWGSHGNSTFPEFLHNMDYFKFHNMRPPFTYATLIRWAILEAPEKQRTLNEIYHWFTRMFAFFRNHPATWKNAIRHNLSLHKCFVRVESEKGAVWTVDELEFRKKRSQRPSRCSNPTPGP
Protocol: FIGS. 7A-7C depict that PF decreases FoxP3 and the immunosuppressive function of human CD4+ cells. Human peripheral blood mononuclear cells (PBMC) were treated in vitro with PF (10 μM) or various control drugs (10 μM) for 3 days (FIG. 7A). PMA 10 ng/ml and Ionomycin 2 μg/ml were added during PF treatment to induce FoxP3 (FIG. 7A). Resulting cells were gated on CD4 and assessed for FoxP3 expression by flow cytometry. To treat Tregs, CD4+ PBMC were isolated and treated with PF or various controls for 72 hours. […] CD8 proliferation was measured using a CFSE dilution assay. To assess CD8+ effector cells, CD4 negative splenocytes were CFSE labeled and CFSE dilution was measured in CD8+ cells by flow cytometry (FIG. 7B). In the same experiment, CD8+ cells were assessed for activation by gating on CD8 and assessing IFNγ or TNFα by flow cytometry (FIG. 7C). […]
Human peripheral blood mononuclear cells (PBMC) were treated with phorbol 12-myristate 13-acetate (PMA) (10 ng/ml) and Ionomycin (2 μg/ml) to increase FoxP3 expression. […] CD8 proliferation was measured using a CFSE dilution assay. Immune activation was assessed by measuring TNFα or IFNγ in CD8+ or CD4+ T cells using flow cytometry.
P60 was designed to bind both mouse and human FoxP3. Therefore, we evaluated PF using human peripheral blood mononuclear cells (PBMC). […] Resulting cells were gated on CD4 and assessed for FoxP3 expression by flow cytometry. […]

RENCA cells = experiment: RENCA cell growth in vitro; format: cell-based, mouse; settings: 0.002, 0.02, 0.2, or 2 μM, 48 hours
Protocol: That is, the tumor in the P60 treated tumor grew at the same rate as the saline treated mice. Further, RENCA cells (20×10^4/well) were seeded in 12 well plates and treated with PF or PC at 0.002, 0.02, 0.2, or 2 μM. […] The first approach involved depleting CD8+ lymphocytes, which are known to mediate antitumor immunity.

CSCC[C@H](NC(=O)[C@H](C)NC(=O)[C@H](Cc1ccccc1)NC(=O)[C@H](Cc1ccccc1)NC(=O)[C@@H]1CCCN1C(=O)[C@H](Cc1c[nH]c2ccccc12)NC(=O)[C@H](CCSC)NC(=O)[C@H](CCCCN)NC(=O)[C@H](CCCNC(=N)N)NC(=O)[C@H](Cc1ccccc1)NC(=O)[C@H](CO)NC(=O)[C@H](CCC(N)=O)NC(=O)[C@H](Cc1ccccc1)NC(=O)[C@H](CC(=O)O)NC(=O)[C@H](CCCNC(=N)N)NC(=O)CCOCCOCCOCCOCCNc1cccc2c1C(=O)N(C1CCC(=O)NC1=O)C2=O)C(=O)O (some centres unmarked) [PF, Pomalidomide-PEG4-RDFQSFRKMWPFFAM] ({X1-PEG4}-RDFQSFRKMWPFFAM-OH)
percent of CD4+ cells expressing FoxP3 (FoxP3): decreased the percent of CD4+ cells expressing FoxP3 when compared to control | RENCA growth in vitro (cell count) (RENCA cells): did not alter RENCA growth in vitro
